Usually IC50 stands for the concentration needed to halve the response being measured.

The target of one data set is CYP3A4(BQ) (Homo sapiens (Human), UniProt P08684). As to the kind of experiment: CYP enzyme inhibition, fluorescent substrate BQ. As to conditions: read-out: Cyp IC50 3A4(BQ); CYP3A4, substrate BQ. In short, it runs like this: (§1)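 IC50 values come from plotting product fluorescence against compound concentration; inhibition lowers formation of the fluorescent metabolite. Ten-point twofold dilutions in co-factor mix were held 10 minutes at 37 °C before the enzyme reaction, also run at 37 °C.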
Chain of CYP3A4(BQ) (P08684 whole entry): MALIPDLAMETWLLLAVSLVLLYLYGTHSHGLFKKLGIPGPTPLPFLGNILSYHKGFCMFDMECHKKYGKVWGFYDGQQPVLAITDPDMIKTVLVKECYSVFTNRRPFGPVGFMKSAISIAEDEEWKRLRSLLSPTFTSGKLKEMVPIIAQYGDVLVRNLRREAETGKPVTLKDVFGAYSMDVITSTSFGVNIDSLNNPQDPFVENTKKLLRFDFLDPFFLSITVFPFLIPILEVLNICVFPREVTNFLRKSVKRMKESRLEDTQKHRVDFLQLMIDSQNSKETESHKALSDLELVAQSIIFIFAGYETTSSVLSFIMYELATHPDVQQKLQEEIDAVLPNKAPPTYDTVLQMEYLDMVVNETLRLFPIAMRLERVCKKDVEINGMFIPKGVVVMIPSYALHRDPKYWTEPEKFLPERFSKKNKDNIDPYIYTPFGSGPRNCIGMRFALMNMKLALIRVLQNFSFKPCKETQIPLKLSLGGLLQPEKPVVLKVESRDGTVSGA

A further data set has as its target CYP2C19 (Homo sapiens (Human), UniProt P33261). As to the kind of experiment: CYP enzyme inhibition, fluorescent substrate (CEC). The method in brief: as §1
Data set [1] has as its system B-Raf. The data set is described as follows: B-Raf kinase activity biochemical assay (AlphaScreen, biotin-MEK1 phosphorylation). As to conditions: for Biochemical activity ratio B/V600E: ratio of IC50 B-Raf / B-Raf V600E; for Biochemical activity ratio B/C: ratio of IC50 B-Raf / c-Raf-1. In short, it runs like this: (§2)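 Biotin-MEK1 phosphorylation measured after 45 min kinase reaction at RT with 100 μM ATP final; compounds tested at 8 points from 0.1 mM DMSO stock.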
A general note: Alpha assays give light when donor and acceptor beads are brought close together.

Data set [2] addresses B-Raf (Homo sapiens (Human), UniProt P15056). The data set is described as above. As to conditions: B-Raf. In short, it runs like this:
as §2

The next data set concerns the target c-Raf-1 (Homo sapiens, UniProt P04049). As to the kind of experiment: c-Raf-1 kinase activity biochemical assay (AlphaScreen, biotin-MEK1 phosphorylation). The method in brief:
as §2

The target of another data set is B-Raf V600E (Homo sapiens (Human), UniProt P15056, V600E). As to the kind of experiment: B-Raf V600E kinase activity biochemical assay (AlphaScreen, biotin-MEK1 phosphorylation). As to conditions: for IC50: B-Raf V600E; for Biochemical activity ratio V600E/C: ratio of IC50 B-Raf V600E / c-Raf-1. The method in brief:
as §2

For a further data set, the target named is CYP2C9 (Homo sapiens (Human), UniProt P11712). As to the kind of experiment: CYP enzyme inhibition, fluorescent substrate (MFC). In short, it runs like this:
as §1

Data set [3] can be described thus: Relative solubility by turbidity threshold concentration in aqueous buffers (pH 1.5, 4.5, 6.8, 7.4). Type of data set: physicochemical. The following applies: for turbidity threshold (L, M, H) 1.4: pH 1.4 [sic] (method: SGF pH 1.5); for turbidity threshold (L, M, H) 4.5: pH 4.5 (SIF); for turbidity threshold (L, M, H) 6.8: pH 6.8 (SIF); for turbidity threshold (L, M, H) 7.4: pH 7.4 (HEPES). The method in brief:
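Solubility class (high >250 μM, moderate 31.3–250 μM, low <31.3 μM) comes from the concentration where absorbance reaches a 0.01 threshold, averaged across 490/535/650 nm. Samples were compound dilutions from DMSO stock, 1 μL into 99 μL buffer at pH 1.5, 4.5, 6.8 or 7.4.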

The target of a further data set is CYP3A4(BFC) (Homo sapiens (Human), UniProt P08684). As to the kind of experiment: CYP enzyme inhibition, fluorescent substrate BFC. As to conditions: read-out: Cyp IC50 3A4(BFC); CYP3A4, substrate BFC. The method in brief:
as §1

In a further data set the target is CYP2D6 (Homo sapiens (Human), UniProt P10635). As to the kind of experiment: CYP enzyme inhibition, fluorescent substrate (AMMC). The following applies: read-out: Cyp IC50 2D6. Type of data set: in vitro ADME. The method in brief:
(§3)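 Ten-point 1:1 compound dilutions in NADPH-regenerating cofactor mix, pre-incubated 10 min at 37 °C before enzyme/substrate addition: CYP1A2 0.5 pmol with 5 μM CEC, 15 min, 409 ex/460 em; CYP2D6 1.5 pmol with 1.5 μM AMMC, 30 min, 409 ex/530 em. IC50 from fluorescent product vs concentration.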

A further data set deals with CYP1A2 (Homo sapiens (Human), UniProt P05177). The data set is described as follows: CYP enzyme inhibition, fluorescent substrate (CEC). The method in brief:
as §3

Read-outs that look alike come from different tables or passages of the source. Some results are limits rather than exact numbers.

Chain of CYP2C9 (P11712 whole entry): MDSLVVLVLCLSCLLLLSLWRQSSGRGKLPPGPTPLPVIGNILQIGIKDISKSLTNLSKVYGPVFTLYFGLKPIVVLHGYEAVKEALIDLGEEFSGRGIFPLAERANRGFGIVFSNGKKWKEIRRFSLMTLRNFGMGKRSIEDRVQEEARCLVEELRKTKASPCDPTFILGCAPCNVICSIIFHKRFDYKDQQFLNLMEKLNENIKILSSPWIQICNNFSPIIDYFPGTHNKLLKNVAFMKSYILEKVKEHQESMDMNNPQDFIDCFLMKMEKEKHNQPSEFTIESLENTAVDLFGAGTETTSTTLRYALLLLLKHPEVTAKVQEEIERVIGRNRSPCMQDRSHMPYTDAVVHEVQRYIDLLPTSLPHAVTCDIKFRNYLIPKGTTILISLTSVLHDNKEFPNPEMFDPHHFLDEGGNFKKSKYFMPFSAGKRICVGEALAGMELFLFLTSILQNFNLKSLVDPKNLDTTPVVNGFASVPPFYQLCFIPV
Chain of B-Raf V600E (P15056 whole entry V600E): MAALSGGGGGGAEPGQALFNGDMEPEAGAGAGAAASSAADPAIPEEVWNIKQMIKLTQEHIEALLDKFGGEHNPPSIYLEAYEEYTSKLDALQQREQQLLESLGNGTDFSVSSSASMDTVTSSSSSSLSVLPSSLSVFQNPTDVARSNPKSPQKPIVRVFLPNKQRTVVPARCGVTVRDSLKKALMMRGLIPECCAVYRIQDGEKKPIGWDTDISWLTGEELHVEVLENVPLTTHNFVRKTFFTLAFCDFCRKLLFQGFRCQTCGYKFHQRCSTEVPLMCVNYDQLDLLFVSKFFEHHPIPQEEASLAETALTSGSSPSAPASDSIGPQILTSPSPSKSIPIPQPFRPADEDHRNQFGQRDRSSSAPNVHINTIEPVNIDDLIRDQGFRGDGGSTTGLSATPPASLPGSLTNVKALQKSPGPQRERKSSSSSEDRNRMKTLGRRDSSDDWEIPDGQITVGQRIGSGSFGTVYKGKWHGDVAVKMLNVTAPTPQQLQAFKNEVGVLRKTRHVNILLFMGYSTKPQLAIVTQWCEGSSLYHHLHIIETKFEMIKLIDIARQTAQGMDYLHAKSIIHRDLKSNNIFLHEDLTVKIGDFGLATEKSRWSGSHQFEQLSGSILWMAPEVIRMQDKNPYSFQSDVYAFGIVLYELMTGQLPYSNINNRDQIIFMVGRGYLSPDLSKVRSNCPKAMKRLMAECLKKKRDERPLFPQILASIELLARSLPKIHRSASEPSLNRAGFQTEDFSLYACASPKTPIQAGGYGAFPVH
Chain of CYP2C19 (P33261 whole entry): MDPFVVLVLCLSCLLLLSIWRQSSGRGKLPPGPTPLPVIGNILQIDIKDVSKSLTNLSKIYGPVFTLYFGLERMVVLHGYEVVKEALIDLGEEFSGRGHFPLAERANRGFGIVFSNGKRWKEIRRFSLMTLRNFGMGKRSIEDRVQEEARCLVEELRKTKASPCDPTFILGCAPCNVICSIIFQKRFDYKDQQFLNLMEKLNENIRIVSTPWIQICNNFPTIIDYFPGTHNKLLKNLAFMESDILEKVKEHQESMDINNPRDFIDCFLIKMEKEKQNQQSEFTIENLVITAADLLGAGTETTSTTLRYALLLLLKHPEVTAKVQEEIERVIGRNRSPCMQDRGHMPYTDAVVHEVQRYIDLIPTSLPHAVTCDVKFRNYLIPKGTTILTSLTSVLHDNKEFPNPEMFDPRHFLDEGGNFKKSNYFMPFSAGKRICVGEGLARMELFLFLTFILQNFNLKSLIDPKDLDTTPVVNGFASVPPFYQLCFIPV
Chain of c-Raf-1 (P04049 whole entry, looked up): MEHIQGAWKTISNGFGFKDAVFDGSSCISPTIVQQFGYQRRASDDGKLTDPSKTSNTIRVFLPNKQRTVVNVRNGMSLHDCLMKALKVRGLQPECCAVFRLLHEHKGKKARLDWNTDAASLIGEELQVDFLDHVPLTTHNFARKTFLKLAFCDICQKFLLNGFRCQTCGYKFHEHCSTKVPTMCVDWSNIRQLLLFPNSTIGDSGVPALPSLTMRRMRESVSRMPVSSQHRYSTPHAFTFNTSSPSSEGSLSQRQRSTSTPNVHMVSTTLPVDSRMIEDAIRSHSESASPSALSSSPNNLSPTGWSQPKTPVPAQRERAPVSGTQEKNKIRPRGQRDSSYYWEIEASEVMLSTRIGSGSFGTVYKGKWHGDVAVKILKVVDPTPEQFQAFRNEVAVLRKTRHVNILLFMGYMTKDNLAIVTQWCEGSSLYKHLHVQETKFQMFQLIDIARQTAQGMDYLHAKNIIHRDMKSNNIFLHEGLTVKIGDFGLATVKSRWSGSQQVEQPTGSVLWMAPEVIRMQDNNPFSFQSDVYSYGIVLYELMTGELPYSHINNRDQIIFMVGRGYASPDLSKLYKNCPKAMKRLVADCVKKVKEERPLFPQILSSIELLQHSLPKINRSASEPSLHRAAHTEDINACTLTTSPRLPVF
Chain of CYP2D6 (P10635 whole entry): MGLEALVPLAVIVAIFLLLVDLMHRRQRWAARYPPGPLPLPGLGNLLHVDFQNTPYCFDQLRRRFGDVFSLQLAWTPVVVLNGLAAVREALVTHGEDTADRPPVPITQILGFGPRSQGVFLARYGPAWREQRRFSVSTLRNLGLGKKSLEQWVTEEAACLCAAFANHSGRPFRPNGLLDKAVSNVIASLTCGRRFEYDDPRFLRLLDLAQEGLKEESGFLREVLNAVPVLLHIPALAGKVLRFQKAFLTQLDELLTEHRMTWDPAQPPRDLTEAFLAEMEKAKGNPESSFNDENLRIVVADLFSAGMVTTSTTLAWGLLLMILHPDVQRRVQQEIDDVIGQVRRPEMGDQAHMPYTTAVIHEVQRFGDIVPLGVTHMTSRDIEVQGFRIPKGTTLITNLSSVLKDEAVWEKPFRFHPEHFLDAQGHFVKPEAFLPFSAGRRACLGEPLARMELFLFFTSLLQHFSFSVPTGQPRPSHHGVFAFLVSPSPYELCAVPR
Chain of B-Raf (Homo sapiens (Human), UniProt P15056) (P15056 whole entry): as the sequence (P15056 whole entry V600E) above, with E600V counted along it
Chain of CYP1A2 (P05177 whole entry): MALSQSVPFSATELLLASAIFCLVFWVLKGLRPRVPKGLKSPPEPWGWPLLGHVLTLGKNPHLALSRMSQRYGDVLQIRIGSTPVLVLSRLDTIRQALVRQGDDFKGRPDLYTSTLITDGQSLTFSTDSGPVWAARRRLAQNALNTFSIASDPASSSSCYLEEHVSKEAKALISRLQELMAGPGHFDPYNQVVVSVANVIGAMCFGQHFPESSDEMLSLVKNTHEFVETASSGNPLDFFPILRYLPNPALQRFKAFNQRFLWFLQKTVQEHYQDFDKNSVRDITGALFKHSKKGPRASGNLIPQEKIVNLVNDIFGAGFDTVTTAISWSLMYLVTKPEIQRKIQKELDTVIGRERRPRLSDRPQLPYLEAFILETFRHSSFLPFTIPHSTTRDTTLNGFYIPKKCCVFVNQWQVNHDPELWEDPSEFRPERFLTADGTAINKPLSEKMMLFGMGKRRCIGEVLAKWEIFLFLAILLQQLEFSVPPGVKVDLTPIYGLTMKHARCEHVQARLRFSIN
Chain of CYP3A4(BFC) (P08684 whole entry): as the sequence (P08684 whole entry) above

On to `CCc1ccc(S(=O)(=O)Nc2ccc(F)c(C(=O)c3c[nH]c4ncnc(OC)c34)c2F)cc1` [P-1008, N-[2,4-Difluoro-3-(4-methoxy-7H-pyrrolo[2,3-d]pyrimidine-5-carbonyl)-phenyl]-4-ethyl-benzenesulfonamide], for which the IC50 on CYP3A4(BQ) was above 10 µM; on CYP2C19 (read-out: Cyp IC50 2C19, CYP2C19, substrate CEC) it was above 10 µM; against B-Raf [2], above 0.1 µM; on c-Raf-1, above 0.1 µM; against B-Raf V600E, above 0.1 µM; at CYP2C9, 5 to 10 µM. Also, the IC50 was above 10 µM at CYP3A4(BFC); above 10 µM on CYP2D6; above 10 µM at CYP1A2 (human, 15 min). For the same compound, the “Biochemical activity ratio B/V600E” value in the data set with B-Raf [1] is 0.1-10. For the same compound, the “Biochemical activity ratio B/C” value in the data set with B-Raf [1] is on record as 0.1-10. The “Biochemical activity ratio V600E/C” value on B-Raf V600E was 0.1-10. Also, the “turbidity threshold (L, M, H) 1.4” value in [3] is given as “M (moderate solubility if the threshold concentration is 31.3 μM to 250 μM)”. In addition, in data set [3], the “turbidity threshold (L, M, H) 4.5” value is listed as “M (moderate solubility if the threshold concentration is 31.3 μM to 250 μM)”. Also, the “turbidity threshold (L, M, H) 6.8” value in [3] is recorded as “L (low solubility if the threshold concentration is <31.3 μM)”. Moreover, in data set [3], the “turbidity threshold (L, M, H) 7.4” value is recorded as “M (moderate solubility if the threshold concentration is 31.3 μM to 250 μM)”.

In the case of `Cc1ncnc2[nH]cc(C(=O)c3c(F)ccc(NS(=O)(=O)c4ccc(C(C)C)cc4)c3F)c12` [P-1009, N-[2,4-Difluoro-3-(4-methyl-7H-pyrrolo[2,3-d]pyrimidine-5-carbonyl)-phenyl]-4-isopropyl-benzenesulfonamide], the IC50 on CYP3A4(BQ) was above 10 µM; on CYP2C19, 5 to 10 µM; against B-Raf [2], above 0.1 µM; at c-Raf-1, below 0.1 µM; against B-Raf V600E, above 0.1 µM; at CYP2C9 (read-out: Cyp IC50 2C9, CYP2C9, substrate MFC) it was below 5 µM. Moreover, the half-maximal inhibitory concentration (IC50) on CYP3A4(BFC) was below 5 µM; at CYP2D6, above 10 µM; against CYP1A2 (human, 15 min) it was above 10 µM. Further, the “Biochemical activity ratio B/V600E” value with B-Raf [1] is listed as 0.1-10. Besides, the “Biochemical activity ratio B/C” value with B-Raf [1] is recorded as above 10. Moreover, the “Biochemical activity ratio V600E/C” value at B-Raf V600E is given as above 10. The “turbidity threshold (L, M, H) 1.4” value in [3] was “H (high solubility if the threshold concentration is >250 μm)”. Besides, the “turbidity threshold (L, M, H) 4.5” value in data set [3] is “L (low solubility if the threshold concentration is <31.3 μM)”. In data set [3], the “turbidity threshold (L, M, H) 6.8” value was “L (low solubility if the threshold concentration is <31.3 μM)”. Also, the “turbidity threshold (L, M, H) 7.4” value in data set [3] is given as “M (moderate solubility if the threshold concentration is 31.3 μM to 250 μM)”.

Turning to `COc1ncnc2[nH]cc(C(=O)c3c(F)ccc(NS(=O)(=O)c4ccc(C(C)C)cc4)c3F)c12` [P-1010, N-[2,4-Difluoro-3-(4-methoxy-7H-pyrrolo[2,3-d]pyrimidine-5-carbonyl)-phenyl]-4-isopropyl-benzenesulfonamide], the IC50 was above 10 µM at CYP3A4(BQ); 5 to 10 µM on CYP2C19; above 0.1 µM against B-Raf [2]; above 0.1 µM on c-Raf-1; above 0.1 µM against B-Raf V600E; 5 to 10 µM against CYP2C9. Also, the half-maximal inhibitory concentration (IC50) on CYP3A4(BFC) was above 10 µM; at CYP2D6, above 10 µM; on CYP1A2 (read-out: Cyp IC50 1A2, CYP1A2, substrate CEC), above 10 µM. Also, the “Biochemical activity ratio B/V600E” value in the data set on B-Raf [1] was 0.1-10. Moreover, the “Biochemical activity ratio B/C” value in the data set with B-Raf [1] was 0.1-10. The “Biochemical activity ratio V600E/C” value on B-Raf V600E is reported as above 10. For the same compound, the “turbidity threshold (L, M, H) 1.4” value in [3] is “L (low solubility if the threshold concentration is <31.3 μM)”. Moreover, the “turbidity threshold (L, M, H) 4.5” value in [3] was “L (low solubility if the threshold concentration is <31.3 μM)”. In addition, the “turbidity threshold (L, M, H) 6.8” value in data set [3] was “L (low solubility if the threshold concentration is <31.3 μM)”. In addition, the “turbidity threshold (L, M, H) 7.4” value in [3] is listed as “M (moderate solubility if the threshold concentration is 31.3 μM to 250 μM)”.

The values above are taken from patent publication US9617267B2, “Compounds and methods for kinase modulation, and indications therefor” (Plexxikon Inc., priority 2009, dated 2017).
